Measurements published in patent publication US20240142676A1, “COMPOUND, COMPOSITION, CURED PRODUCT, OPTICALLY ANISOTROPIC BODY, OPTICAL ELEMENT, AND LIGHT GUIDE ELEMENT” (FUJIFILM Corporation, priority 2021, published 2024).

Columns and labels:
Type in all cases: physicochemical
[1] = Evaluation of liquid crystallinity (hot stage, polarization microscope); design: key: A case of having liquid crystallinity was evaluated as A; a case of having no liquid crystallinity was evaluated as B; details: heated on a hot stage, observed with a polarization microscope
Description: The respective compounds (the compounds A-1 to A-6 and the compounds B-1 and B-2) were heated on a hot stage and observed with a polarization microscope, and the phase transition temperature was measured to evaluate the presence or absence of the liquid crystallinity. A case of having liquid crystallinity was evaluated as A, and a case of having no liquid crystallinity was evaluated as B. The results are shown in Table 1.
Since B-1 has melting points of 200° C. or higher and undergo a polymerization reaction during heating, liquid crystallinity could not be evaluated.

[2] = Measurement of Δn (refractive index anisotropy), wedge-shaped liquid crystal cell; details: wavelength 550 nm, 30° C. or lower limit temperature of nematic phase+0° C. to 10° C.; extrapolated from 1/2 mixture with L-1-1 where needed
Description: The Δn of each of the compounds (the compounds A-1 to A-6 and the compounds B-1 and B-2), which are the compounds to be measured, was measured by a method using a wedge-shaped liquid crystal cell described on page 202 in the Liquid crystal handbook (edited by the liquid crystal handbook editorial board, published by Maruzen Co., Ltd., 2000). Δn was defined as a measured value at a wavelength of 550 nm at 30° C. or the lower limit temperature of the nematic phase+0° C. to 10° C. In a case of a compound which is liable to crystallize or a compound having no liquid crystallinity, evaluation was carried out using a mixture thereof with the other liquid crystal compound, and Δn was estimated from the extrapolated value of the measured value thereof.
The following L-1-1 was used as the other liquid crystal compound. As the above mixture, a mixture obtained by mixing at a ratio of the compound to be measured/the L-1-1=1/2 (in terms of mass ratio) was used.
A case where Δn was 0.35 or more was evaluated as A, a case where Δn was 0.30 or more and less than 0.35 was evaluated as B, and a case where Δn was less than 0.30 was evaluated as C.

[3] = Evaluation of solubility in methyl ethyl ketone; details: precipitation concentration in methyl ethyl ketone at room temperature (25° C.)
Description: The solubility of each of the compounds (the compounds A-1 to A-6 and the compounds B-1 and B-2) in methyl ethyl ketone was evaluated.

[4] = Light resistance evaluation of optically anisotropic layer (Super Xenon Weather Meter); details: rate of change in Re (550 nm) of layer with 25 parts compound/75 parts L-1; 5 million lx, 50 hours, 63° C., 50% RH, oxygen-blocking
Description: As shown below, the light resistance of the optically anisotropic layer produced using the composition containing each of the compounds A-1 to A-6 and the compounds B-1 and B-2 was evaluated.
A coating liquid having the following composition was prepared and applied by spin-coating, onto a rubbing-treated glass attached with an alignment film. Each composition was irradiated with ultraviolet rays of 300 mJ/cm^2 through a filter that cuts light having a wavelength of 350 nm or less on a hot plate which had been heated to a temperature at which a nematic phase is shown, whereby an optically anisotropic layer was produced.
The polymerizable liquid crystal compound L-1 is a mixture obtained by mixing at a ratio of the following L-1-1/L-1-2/L-1-3=84/14/2 (in terms of mass ratio).
The produced optically anisotropic layers for a light resistance test were irradiated with light using a Super Xenon Weather Meter SX75 manufactured by Suga Test Instruments Co., Ltd. Using KU-1000100 manufactured by King Seisakusho Co., Ltd. as a UV cut filter, a light resistance test was carried out by irradiation with 5 million lx of light for 50 hours under an oxygen-blocking condition. The temperature of the specimen to be tested (the temperature inside the test device) was set to 63° C. The relative humidity in the test device was 50% RH.
The Re of the optically anisotropic layer before and after the light resistance test was measured, the light resistance in a case where the rate of change in Re described below was less than 10% was evaluated as A, and the light resistance in a case where the rate of change in Re was 10% or more was evaluated as B. The smaller the rate of change in Re, the more excellent the light resistance.
Rate of change in Re (%)=[100×{|(Re after test)−(Re before test)|}/(Re before test)]
Re was measured with Axoscan manufactured by Axometrics Inc. at a wavelength of 550 nm, and the measurement temperature was set to room temperature.

Row | Liquid crystallinity [1] | SMILES | Δn [2] | Solubility [3] | Light resistance [4]
1 | A | C=CC(=O)OCCc1ccc(C#Cc2ccc(-c3ccc(C#Cc4ccc(CCOC(=O)C=C)cc4)cc3C)c(C)c2)cc1 [Compound A-1] | B (a case where Δn was 0.30 or more and less than 0.35 was evaluated as B) | A (the solubility in a case where the precipitation concentration was 10% by mass or more was evaluated as A) | A (the light resistance in a case where the rate of change in Re described below was less than 10% was evaluated as A)
2 | A | C=CC(=O)OCCSc1ccc(C#Cc2ccc(-c3ccc(C#Cc4ccc(SCCOC(=O)C=C)cc4)cc3C)c(C)c2)cc1 [Compound A-2] | A (A case where Δn was 0.35 or more was evaluated as A) | A (the solubility in a case where the precipitation concentration was 10% by mass or more was evaluated as A) | A (the light resistance in a case where the rate of change in Re described below was less than 10% was evaluated as A)
3 | A | C=CC(=O)OCCCCOc1ccc(C#Cc2ccc(-c3ccc(C#Cc4ccc(OCCCCOC(=O)C=C)cc4)cc3C)c(C)c2)cc1 [Compound A-3] | B (a case where Δn was 0.30 or more and less than 0.35 was evaluated as B) | A (the solubility in a case where the precipitation concentration was 10% by mass or more was evaluated as A) | A (the light resistance in a case where the rate of change in Re described below was less than 10% was evaluated as A)
4 | A | C=CC(=O)OCCc1ccc(C#Cc2cnc(-c3ncc(C#Cc4ccc(CCOC(=O)C=C)cc4)cc3C)c(C)c2)cc1 [Compound A-6] | B (a case where Δn was 0.30 or more and less than 0.35 was evaluated as B) | A (the solubility in a case where the precipitation concentration was 10% by mass or more was evaluated as A) | A (the light resistance in a case where the rate of change in Re described below was less than 10% was evaluated as A)
